Data reported in ChEMBL document CHEMBL5608234, “Heat Shock Protein 90 Interactome-Mediated Proteolysis Targeting Chimera (HIM-PROTAC) Degrading Glutathione Peroxidase 4 to Trigger Ferroptosis” (J Med Chem, 2024).
Activity calls are given as the source filed them. The rule behind the calls is not given here.

Experiments:
[1] = Cmax in ICR mouse at 25 mg/kg, ip measured upto 24 hrs by LC-MS/MS analysis; type: ADME, organism-based; details: in vivo
[2] = system: HT-1080; assay: Induction of ferroptosis in human HT-1080 cells assessed as increase in lipid peroxidation by measuring fluorescence intensity incubated for 12 hrs by C11-BODIPSY 581/591 staining based flow cytometry analysis; type: functional, cell-based; details: dose 0.1-3 µM
[3] = system: HT-1080; assay: HIM-PROTAC activity at GPX4/HSP90/E3 ligase in CUL3-knockdown human HT-1080 cells assessed as GPX4 degradation at 0.3 to 1 uM incubated for 24 hrs by Western blotting analysis; type: cell-based; details: dose 0.3-1 µM
[4] = system: HT-1080; assay: HIM-PROTAC activity at GPX4/HSP90/E3 ligase in CHIP knockdown human HT-1080 cells assessed as GPX4 degradation at 1 uM incubated for 24 hrs by Western blotting analysis; type: cell-based
[5] = system: HT-1080; assay: HIM-PROTAC activity at GPX4/HSP90/E3 ligase in CUL5-knockdown human HT-1080 cells assessed as GPX4 degradation at 0.3 to 1 uM incubated for 24 hrs by Western blotting analysis; type: cell-based; details: dose 0.3-1 µM
[6] = system: Mus musculus; assay: Upregulation of 4-HNE level in ip dosed BALB/c mouse xenografted with human HT-1080 cells administered once daily by immunohistochemistry analysis; type: functional, organism-based; details: dose 25-50 mg/kg
[7] = Tmax in ICR mouse at 25 mg/kg, ip measured upto 24 hrs by LC-MS/MS analysis; type: ADME, organism-based; details: in vivo
[8] = Toxicity in BALB/c mouse xenografted with human HT-1080 cells assessed as animal death at 50 mg/kg, ip administered once daily measured after 10 days; type: organism-based; details: in vivo, 240 h, time 10 day
[9] = system: HT-1080; assay: HIM-PROTAC activity at GPX4/HSP90/E3 ligase in human HT-1080 cells assessed as reduction in GPX4 level at 1 uM preincubated with 2-chloro-N-(3-chloro-4-methoxyphenyl)-N-(2-oxo-2-(phenethylamino)-1-(thiophen-2-yl)ethyl)acetamide for 2 hrs followed by compound addition and measured after 24 hrs by Western blotting analysis; type: cell-based
[10] = system: HT-1080; assay: HIM-PROTAC activity at GPX4/HSP90/E3 ligase in human HT-1080 cells assessed as reduction in GPX4 level at 0.1 to 3 uM incubated for 24 hrs by Western blotting analysis; type: cell-based; details: dose 0.1-3 µM
[11] = system: HT-1080; assay: HIM-PROTAC activity at GPX4/HSP90/E3 ligase in human HT-1080 cells assessed as GPX4 degradation at 0.3 to 1 uM preincubated with MLN4924 for 2 hrs followed by compound addition and measured after 24 hrs by Western blotting analysis; type: cell-based; details: dose 0.3-1 µM
[12] = system: HT-1080; assay: HIM-PROTAC activity at GPX4/HSP90/E3 ligase in CUL2-knockdown human HT-1080 cells assessed as GPX4 degradation at 0.3 to 1 uM incubated for 24 hrs by Western blotting analysis; type: cell-based; details: dose 0.3-1 µM
[13] = system: HT-1080; assay: HIM-PROTAC activity at GPX4/HSP90/E3 ligase in HSP90-knockdown human HT-1080 cells assessed as GPX4 degradation at 1 uM preincubated with KW-2478 and KUNB-31 for 3 hrs followed by compound addition and measured after 24 hrs by Western blotting analysis; type: cell-based
[14] = system: HT-1080; assay: HIM-PROTAC activity at GPX4/HSP90/E3 ligase in HSP90-knockdown human HT-1080 cells assessed as GPX4 degradation at 1 uM preincubated with KW-2478 for 3 hrs followed by compound addition and measured after 24 hrs by Western blotting analysis; type: cell-based
[15] = (§1) HIM-PROTAC activity at GPX4/HSP90/E3 ligase in human HT-1080 cells assessed as reduction in GPX4 level incubated for 24 hrs by Western blotting analysis; type: cell-based; details: HT-1080, 24 h
[16] = system: HT-1080; assay: as §1; type: cell-based
[17] = system: HT-1080; assay: HIM-PROTAC activity at GPX4/HSP90/E3 ligase in HSP90-knockdown human HT-1080 cells assessed as GPX4 degradation at 1 uM preincubated with KUNB-31 for 3 hrs followed by compound addition and measured after 24 hrs by Western blotting analysis; type: cell-based
[18] = system: HT-1080; assay: Antitumor activity against human HT-1080 cells xenografted in ip dosed BALB/c mouse assessed as tumor growth suppression administered once daily; type: functional, organism-based; details: dose 25-50 mg/kg
[19] = system: B16-F10; assay: HIM-PROTAC activity at GPX4/HSP90/E3 ligase in mouse B16-F10 cells assessed as reduction in GPX4 level at 0.1 to 3 uM incubated for 24 hrs by Western blotting analysis; type: cell-based; details: dose 0.1-3 µM
[20] = system: HT-1080; assay: HIM-PROTAC activity at GPX4/HSP90/E3 ligase in LZTR1 knockdown human HT-1080 cells assessed as GPX4 degradation at 0.3 to 1 uM incubated for 24 hrs by Western blotting analysis; type: cell-based; details: dose 0.3-1 µM
[21] = system: Mus musculus; assay: Upregulation of 4-HNE protein level in BALB/c mouse tumor xenografted with human HT-1080 cells at 50 to 100 mg/kg, ip measured upto 36 hrs; type: functional, organism-based; details: dose 50-100 mg/kg
[22] = system: HT-1080; assay: HIM-PROTAC activity at GPX4/HSP90/E3 ligase in human HT-1080 cells assessed as GPX4 degradation at 1 uM measured 12 hrs post compound washout by Western blotting analysis; type: cell-based
[23] = system: HT-1080; assay: Cytotoxicity against human HT-1080 cells incubated for 48 hrs in presence of Fer-1 by CCK-8 assay; type: functional, cell-based; details: HT-1080, 48 h
[24] = system: HT-1080; assay: Induction of ferroptosis in human HT-1080 cells assessed as increase in Fe2+ level at 1 uM incubated for 24 hrs by FerroOrange staining based confocal laser scanning microscopic analysis; type: functional, cell-based
[25] = system: Mus musculus; assay: Downregulation of GPX4 protein level in BALB/c mouse tumor xenografted with human HT-1080 cells at 50 to 100 mg/kg, ip measured upto 36 hrs; type: functional, organism-based; details: dose 50-100 mg/kg
[26] = system: HT-1080; assay: Cytotoxicity against human HT-1080 cells incubated for 48 hrs by CCK-8 assay; type: functional, cell-based; details: HT-1080, 48 h
[27] = system: HT-1080; assay: HIM-PROTAC activity at GPX4/HSP90/E3 ligase in human HT-1080 cells assessed as downregulation of GPX4 mRNA level at 0.1 to 1 uM incubated for 24 hrs by qRT-PCR analysis; type: cell-based; details: dose 0.1-1 µM
[28] = system: HT-1080; assay: HIM-PROTAC activity at GPX4/HSP90/E3 ligase in CUL1-knockdown human HT-1080 cells assessed as GPX4 degradation at 0.3 to 1 uM incubated for 24 hrs by Western blotting analysis; type: cell-based; details: dose 0.3-1 µM
[29] = system: HT-1080; assay: Induction of ferroptosis in human HT-1080 cells assessed as ruptured mitochondria at 1 uM incubated for 24 hrs by TEM analysis; type: functional, cell-based
[30] = Drug uptake in human HT-1080 cells at 5 uM incubated for 18 hrs by LC-MS analysis; type: ADME, cell-based; details: ht-1080, 18 h
[31] = Drug uptake in human HT-1080 cells at 5 uM incubated for 6 hrs by LC-MS analysis; type: ADME, cell-based; details: ht-1080, 6 h
[32] = system: HT-1080; assay: HIM-PROTAC activity at GPX4/HSP90/E3 ligase in human HT-1080 cells assessed as GPX4 degradation at 1 uM measured 24 hrs post compound washout by Western blotting analysis; type: cell-based
[33] = system: HT-1080; assay: HIM-PROTAC activity at GPX4/HSP90/E3 ligase in human HT-1080 cells assessed as downregulation of GPX4 mRNA level at 1 uM incubated for 24 hrs by qRT-PCR analysis; type: cell-based

SMILES | Cmax [1] | Activity [2] | Activity [6] | Tmax [7] | Activity [8] | Activity [9] | Activity [10] | DC50 [15] | Activity [18] | Activity [19] | Activity [21] | IC50 [23] | Activity [24] | Activity [25] | IC50 [26] | Activity [29] | other results
COc1c(C)cnc(Cn2cnc3c(NCCC4CCN(C(=O)Cn5cc(COc6ccc(N(C(=O)CCl)C(C(=O)NCCc7ccccc7)c7cccs7)cc6Cl)nn5)CC4)nc(N)nc32)c1C (centres undefined) | 53.1 ng/mL | Dose-Dependent Effect | Dose-Dependent Effect | 2 h | Non-Toxic | inactive | Active | 80 nM | Dose-Dependent Effect | Active | Active | 35500 nM | Active | Active | 740 nM | Active | Activity [3]: Active; Activity [4]: inactive; Activity [5]: inactive; Activity [11]: inactive; Activity [12]: Active; Activity [13]: inactive; Activity [14]: inactive; Activity [16]: Dose-Dependent Effect; Activity [17]: inactive; Activity [20]: Active; Activity [22]: Active; Activity [27]: inactive; Activity [28]: Active
COc1c(C)cnc(Cn2cnc3c(NCCOCCOCCOCCn4cc(COc5ccc(N(C(=O)CCl)C(C(=O)NCCc6ccccc6)c6cccs6)cc5Cl)nn4)nc(N)nc32)c1C (centres undefined) | 139 ng/mL | Dose-Dependent Effect | Dose-Dependent Effect | 2 h | Non-Toxic | inactive | Active | 180 nM | Dose-Dependent Effect | Active | Active | 4400 nM | Active | Active | 1300 nM | Active | Drug uptake [30]: Not Active; Drug uptake [31]: Active; Activity [32]: Active; Activity [33]: Active
